The values that follow come from US20260327204A1, “DEGRADERS OF CYCLIN-DEPENDENT KINASE 12/13, COMPOSITIONS, AND USES THEREOF” (ZHEJIANG UNIVERSITY, priority 2023, published 2026).

Structures are written as SMILES. Read-outs that look alike come from different tables or passages of the source.

One assay concerns the target CDK12 (Homo sapiens, UniProt Q9NYV4). In words: Western blot degradation of CDK12 (Example 3). The assay is classed as cell-based. More on the design: degradation of CDK12/13 protein in leukemia cells KASUMI-1, MV4-11, and Jurkat; endogenous in cells.
The target in another assay is CDK13 (Homo sapiens, UniProt Q14004). In words: Western blot degradation of CDK13 (Example 3). More on the design: degradation of CDK12/13 protein in leukemia cells KASUMI-1, MV4-11, and Jurkat; endogenous in cells. In kind it is cell-based.
Chain of CDK13 (Q14004 whole entry): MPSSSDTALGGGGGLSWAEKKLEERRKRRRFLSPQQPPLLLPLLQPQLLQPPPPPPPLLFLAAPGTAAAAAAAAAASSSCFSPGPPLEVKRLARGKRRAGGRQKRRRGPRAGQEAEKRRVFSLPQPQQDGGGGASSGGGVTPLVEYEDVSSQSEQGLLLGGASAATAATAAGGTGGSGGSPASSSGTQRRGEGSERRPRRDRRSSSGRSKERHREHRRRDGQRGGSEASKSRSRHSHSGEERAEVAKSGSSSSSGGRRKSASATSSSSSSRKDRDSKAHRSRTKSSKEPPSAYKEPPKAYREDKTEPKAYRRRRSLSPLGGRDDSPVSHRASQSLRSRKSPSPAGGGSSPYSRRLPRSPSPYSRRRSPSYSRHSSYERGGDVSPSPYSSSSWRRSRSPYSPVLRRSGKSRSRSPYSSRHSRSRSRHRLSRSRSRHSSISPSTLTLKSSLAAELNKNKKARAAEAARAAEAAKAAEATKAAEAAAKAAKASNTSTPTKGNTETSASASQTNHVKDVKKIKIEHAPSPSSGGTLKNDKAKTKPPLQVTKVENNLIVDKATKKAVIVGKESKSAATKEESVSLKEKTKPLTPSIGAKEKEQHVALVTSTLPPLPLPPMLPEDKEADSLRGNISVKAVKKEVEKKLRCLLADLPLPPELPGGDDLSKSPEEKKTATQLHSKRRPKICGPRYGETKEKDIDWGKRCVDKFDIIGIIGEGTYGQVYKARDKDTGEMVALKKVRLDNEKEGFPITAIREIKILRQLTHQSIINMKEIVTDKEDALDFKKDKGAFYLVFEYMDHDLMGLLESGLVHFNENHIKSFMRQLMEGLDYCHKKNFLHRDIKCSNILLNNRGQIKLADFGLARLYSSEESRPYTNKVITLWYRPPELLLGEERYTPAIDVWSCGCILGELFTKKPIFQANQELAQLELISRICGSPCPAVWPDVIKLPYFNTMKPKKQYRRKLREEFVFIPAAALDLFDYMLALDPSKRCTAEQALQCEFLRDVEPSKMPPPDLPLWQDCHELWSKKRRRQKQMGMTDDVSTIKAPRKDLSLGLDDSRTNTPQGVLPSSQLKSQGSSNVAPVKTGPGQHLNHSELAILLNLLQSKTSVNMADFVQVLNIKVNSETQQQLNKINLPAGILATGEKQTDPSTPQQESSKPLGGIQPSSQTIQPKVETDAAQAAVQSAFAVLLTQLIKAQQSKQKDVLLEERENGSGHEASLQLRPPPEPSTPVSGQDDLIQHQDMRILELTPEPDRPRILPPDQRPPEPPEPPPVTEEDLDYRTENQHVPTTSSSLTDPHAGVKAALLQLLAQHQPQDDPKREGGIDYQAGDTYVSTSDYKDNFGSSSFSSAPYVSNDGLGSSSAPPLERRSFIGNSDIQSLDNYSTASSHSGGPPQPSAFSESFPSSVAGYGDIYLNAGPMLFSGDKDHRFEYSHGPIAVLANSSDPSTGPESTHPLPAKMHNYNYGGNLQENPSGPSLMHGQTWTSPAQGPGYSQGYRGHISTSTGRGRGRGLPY
Chain of CDK13 (O75909 whole entry partner): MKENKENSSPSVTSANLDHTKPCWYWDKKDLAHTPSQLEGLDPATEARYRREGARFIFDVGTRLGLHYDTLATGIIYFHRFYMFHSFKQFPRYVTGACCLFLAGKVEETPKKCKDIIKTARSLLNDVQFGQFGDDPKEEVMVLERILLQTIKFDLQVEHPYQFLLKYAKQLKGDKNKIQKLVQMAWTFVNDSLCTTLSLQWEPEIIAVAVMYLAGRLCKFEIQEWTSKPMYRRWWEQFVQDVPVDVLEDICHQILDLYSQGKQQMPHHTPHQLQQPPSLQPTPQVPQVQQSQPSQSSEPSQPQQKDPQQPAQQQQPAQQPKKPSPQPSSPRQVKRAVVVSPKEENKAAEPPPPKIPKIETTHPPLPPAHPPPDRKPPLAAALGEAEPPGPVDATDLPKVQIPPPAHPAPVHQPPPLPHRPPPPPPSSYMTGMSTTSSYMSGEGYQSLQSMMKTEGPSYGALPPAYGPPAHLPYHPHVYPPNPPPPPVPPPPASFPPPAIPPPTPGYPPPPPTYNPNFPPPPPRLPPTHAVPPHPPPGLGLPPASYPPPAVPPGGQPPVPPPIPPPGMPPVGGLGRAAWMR
[1] abbreviates: DC50 classes; cell line not given; read-out: CDK12 degradation Activity.
Setting [2] is: DC50 classes; cell line not given; read-out: CDK13 degradation Activity.

Chain of CDK12 (Q9NYV4 whole entry): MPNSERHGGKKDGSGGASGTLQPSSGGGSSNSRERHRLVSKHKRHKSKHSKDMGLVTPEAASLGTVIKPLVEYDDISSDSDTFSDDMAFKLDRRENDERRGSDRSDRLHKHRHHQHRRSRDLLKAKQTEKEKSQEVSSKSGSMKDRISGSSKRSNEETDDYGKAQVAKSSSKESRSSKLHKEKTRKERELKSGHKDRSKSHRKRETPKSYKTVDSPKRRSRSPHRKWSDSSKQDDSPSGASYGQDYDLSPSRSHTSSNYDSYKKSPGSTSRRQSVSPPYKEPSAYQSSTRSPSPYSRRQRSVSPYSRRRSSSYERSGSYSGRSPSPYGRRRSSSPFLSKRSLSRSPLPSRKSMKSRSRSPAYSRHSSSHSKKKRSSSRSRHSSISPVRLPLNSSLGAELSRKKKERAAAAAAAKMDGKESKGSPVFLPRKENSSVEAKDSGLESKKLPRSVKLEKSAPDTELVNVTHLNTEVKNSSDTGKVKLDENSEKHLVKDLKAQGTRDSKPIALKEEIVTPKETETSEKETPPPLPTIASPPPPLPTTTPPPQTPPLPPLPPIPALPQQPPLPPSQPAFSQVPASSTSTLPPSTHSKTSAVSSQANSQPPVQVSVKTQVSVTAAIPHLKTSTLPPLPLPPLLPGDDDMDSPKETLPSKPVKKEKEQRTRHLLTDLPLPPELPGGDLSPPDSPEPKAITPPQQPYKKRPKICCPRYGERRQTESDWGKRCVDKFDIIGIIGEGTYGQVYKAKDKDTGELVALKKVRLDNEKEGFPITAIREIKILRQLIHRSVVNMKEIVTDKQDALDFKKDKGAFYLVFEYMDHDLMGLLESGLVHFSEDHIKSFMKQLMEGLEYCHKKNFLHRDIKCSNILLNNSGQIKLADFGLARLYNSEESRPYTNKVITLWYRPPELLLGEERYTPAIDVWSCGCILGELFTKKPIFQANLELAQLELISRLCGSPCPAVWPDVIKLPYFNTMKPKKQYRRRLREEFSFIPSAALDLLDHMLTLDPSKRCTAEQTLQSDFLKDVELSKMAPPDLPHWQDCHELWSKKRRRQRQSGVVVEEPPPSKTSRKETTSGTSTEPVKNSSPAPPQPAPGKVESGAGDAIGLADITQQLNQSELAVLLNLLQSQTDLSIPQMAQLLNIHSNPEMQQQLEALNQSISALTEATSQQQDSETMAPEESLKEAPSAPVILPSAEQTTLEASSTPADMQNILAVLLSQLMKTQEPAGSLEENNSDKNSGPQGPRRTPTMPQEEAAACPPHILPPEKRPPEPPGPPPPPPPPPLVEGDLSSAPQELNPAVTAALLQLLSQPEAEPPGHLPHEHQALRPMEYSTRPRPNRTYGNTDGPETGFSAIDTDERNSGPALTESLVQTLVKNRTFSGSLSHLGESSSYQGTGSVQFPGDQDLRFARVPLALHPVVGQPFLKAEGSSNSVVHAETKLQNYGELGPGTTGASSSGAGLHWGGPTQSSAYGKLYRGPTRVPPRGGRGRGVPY
Chain of CDK12 (O75909 whole entry partner): as the sequence (O75909 whole entry partner) above

For `CC(=O)N(c1ccc(-c2ccn(CC3CCN(c4ccc5c(c4)C(=O)N(C4CCC(=O)NC4=O)C5=O)CC3)c(=O)c2)cc1)[C@H]1CC[C@H](Nc2ncc3ccccc3n2)CC1` (stereo partly drawn) [Formula 111, N-(4-(1-((1-(2-(2,6-dioxopiperidin-3-yl)-1,3-dioxoisoindolin-5-yl)piperidin-4-yl)methyl)-2-oxo-1,2-dihydropyridin-4-yl)phenyl)-N-((1R,4R)-4-(quinazolin-2-ylamino)cyclohexyl)acetamide], the DC50 at CDK12 (setting [1]) and at CDK13 (setting [2]) was 1000 to 3000 nM throughout.
With `CC(=O)N(c1ccc(-c2ccc(N3CCN(c4cc(C(C(=O)N5C[C@H](O)C[C@H]5C(=O)N[C@@H](C)c5ccc(-c6scnc6C)cc5)C(C)C)on4)CC3)nc2)cc1)[C@H]1CC[C@@H](Nc2ncc3ccccc3n2)CC1` (single isomer, unassigned) [Formula 155], the DC50 on CDK12 (setting [1]) and at CDK13 (setting [2]) was less than 100 nM throughout.
As to `CC(=O)N(c1ccc(-c2cnc(N3CCN(Cc4cnn([C@H](C(=O)N5C[C@H](O)C[C@H]5C(=O)N[C@@H](C)c5ccc(-c6scnc6C)cc5)C(C)C)c4)CC3)nc2)cc1)[C@H]1CC[C@H](Nc2ncc3ccccc3n2)CC1` [Formula 153, (2S,4R)-4-hydroxy-1-((S)-3-methyl-2-(4-((4-(5-(4-(N-((1R,4R)-4-(quinazolin-2-ylamino)cyclohexyl)acetamido)phenyl)pyrimidin-2-yl)piperazin-1-yl)methyl)-1H-pyrazol-1-yl)butanoyl)-N—((S)-1-(4-(4-methylthiazol-5-yl)phenyl)ethyl)pyrrolidine-2-carboxamide], the DC50 on CDK12 (setting [1]) is 100 to 500 nM; at CDK13 (setting [2]), less than 100 nM.
As for `CC(=O)N(c1ccc(-c2cnc(N3CCC(C(=O)N[C@H](C(=O)N4C[C@H](O)C[C@H]4C(=O)N[C@@H](C)c4ccc(-c5scnc5C)cc4)C(C)(C)C)CC3)nc2)cc1)[C@H]1CC[C@H](Nc2ncc3ccccc3n2)CC1` [Formula 138, N—((S)-1-((2S,4R)-4-hydroxy-2-(((S)-1-(4-(4-methylthiazol-5-yl)phenyl)ethyl)carbamoyl)pyrrolidin-1-yl)-3,3-dimethyl-1-oxobutan-2-yl)-1-(5-(4-(N-((1R,4R)-4-(quinazolin-2-ylamino)cyclohexyl)acetamido)phenyl)pyrimidin-2-yl)piperidine-4-carboxamide], the DC50 on CDK12 (setting [1]) fell in the range of 1000 to 3000 nM. Further, at CDK13 (DC50 classes; cell line not given), the “CDK13 degradation Activity” value is recorded as “−”.
As for `CC(=O)N(c1ccc(N2CCN(CC3CCN(c4ccc5c(c4)C(=O)N(C4CCC(=O)NC4=O)C5=O)C3)CC2)cc1)[C@H]1CC[C@H](Nc2ncc3ccccc3n2)CC1` (stereo partly drawn) [Formula 126, N-(4-(4-((1-(2-(2,6-dioxopiperidin-3-yl)-1,3-dioxoisoindolin-5-yl)pyrrolidin-3-yl)methyl)piperazin-1-yl)phenyl)-N-((1R,4R)-4-(quinazolin-2-ylamino)cyclohexyl)acetamide], the figures for the DC50 at CDK12 (setting [1]) and at CDK13 (setting [2]) were 1000 to 3000 nM and 3000 to 10000 nM, respectively.
For `CC(=O)N(c1ccc(-c2ccc(C(=O)N[C@H]3CCC(=O)NC3=O)nc2)cc1)[C@H]1CC[C@H](Nc2ncc3ccccc3n2)CC1` [Formula 129, N—((S)-2,6-dioxopiperidin-3-yl)-5-(4-(N-((1R,4S)-4-(quinazolin-2-ylamino)cyclohexyl)acetamido)phenyl)pyridinecarboxamide] the same measures were 3000 to 10000 nM and 3000 to 10000 nM.
For `CC(=O)N(c1ccc(-c2cnc(N3CCN(c4ccc5c(c4)C(=O)N(C4CCC(=O)NC4=O)C5=O)CC3)nc2)cc1)[C@H]1CC[C@H](Nc2ncc3ccccc3n2)CC1` (some centres unmarked) [Formula 158] the same measures were less than 100 nM and less than 100 nM.
For `CC(=O)N(c1ccc(N2CCC3(CC2)CCN(c2ccc4c(c2)C(=O)N(C2CCC(=O)NC2=O)C4=O)CC3)cc1)[C@H]1CC[C@H](Nc2ncc3ccccc3n2)CC1` (stereo partly drawn) [Formula 120, N-(4-(9-(2-(2,6-dioxopiperidin-3-yl)-1,3-dioxoisoindolin-5-yl)-3,9-diazaspiro[5.5]undecan-3-yl)phenyl)-N-((1R,4R)-4-(quinazolin-2-ylamino)cyclohexyl)acetamide] the same measures were 3000 to 10000 nM and 3000 to 10000 nM.
As for `CC(=O)N(c1ccc(-c2cnc(O[C@H]3CCN(c4ccc5c(c4)C(=O)N(C4CCC(=O)NC4=O)C5=O)C3)nc2)cc1)[C@H]1CC[C@H](Nc2ncc3ccccc3n2)CC1` (stereo partly drawn) [Formula 110, N-(4-(2-(((3S)-1-(2-(2,6-dioxopiperidin-3-yl)-1,3-dioxoisoindolin-5-yl)pyrrolidin-3-yl)oxy)pyrimidin-5-yl)phenyl)-N-((1R,4R)-4-(quinazolin-2-ylamino)cyclohexyl)acetamide], the DC50 on CDK12 (setting [1]) lay in the range of 1000 to 3000 nM; on CDK13 (setting [2]), 500 to 1000 nM.
For `CC(=O)N(c1ccc(-c2ccc3c(c2)CCN(CC(=O)N[C@H](C(=O)N2C[C@H](O)C[C@H]2C(=O)N[C@@H](C)c2ccc(-c4scnc4C)cc2)C(C)(C)C)C3)cc1)[C@H]1CC[C@H](Nc2ncc3ccccc3n2)CC1` [Formula 149, (2S,4R)-1-((S)-3,3-dimethyl-2-(2-(6-(4-(N-((1R,4R)-4-(quinazolin-2-ylamino)cyclohexyl)acetamido)phenyl)-3,4-dihydroisoquinolin-2(1H)-yl)acetamido)butanoyl)-4-hydroxy-N—((S)-1-(4-(4-methylthiazol-5-yl)phenyl)ethyl)pyrrolidine-2-carboxamide] the same measures were 500 to 1000 nM and 1000 to 3000 nM.
For `CC(=O)N(c1ccc(-c2ccn(CC3CN(c4ccc5c(c4)C(=O)N(C4CCC(=O)NC4=O)C5=O)C3)c(=O)c2)cc1)[C@H]1CC[C@H](Nc2ncc3ccccc3n2)CC1` (stereo partly drawn) [Formula 112, N-(4-(1-((1-(2-(2,6-dioxopiperidin-3-yl)-1,3-dioxoisoindolin-5-yl)azetidin-3-yl)methyl)-2-oxo-1,2-dihydropyridin-4-yl)phenyl)-N-((1R,4R)-4-(quinazolin-2-ylamino)cyclohexyl)acetamide] the same measures were 100 to 500 nM and 100 to 500 nM.
For the compound `CC(=O)N(c1ccc(-c2ccc(N3CCN(Cc4cnn([C@H](C(=O)N5C[C@H](O)C[C@H]5C(=O)N[C@@H](C)c5ccc(-c6scnc6C)cc5)C(C)C)c4)CC3)nc2)cc1)C1CCC(Nc2ncc3ccccc3n2)CC1` (stereo partly drawn) [Formula 151, (2S,4R)-4-hydroxy-1-((S)-3-methyl-2-(4-((4-(5-(4-(N-((1R,4R)-4-(quinazolin-2-ylamino)cyclohexyl)acetamido)phenyl)pyridin-2-yl)piperazin-1-yl)methyl)-1H-pyrazol-1-yl)butanoyl)-N—((S)-1-(4-(4-methylthiazol-5-yl)phenyl)ethyl)pyrrolidine-2-carboxamide], the values for the DC50 at CDK12 (read-out: CDK12 degradation Activity; DC50 classes; cell line not given) and on CDK13 (read-out: CDK13 degradation Activity; DC50 classes; cell line not given) were 500 to 1000 nM and 100 to 500 nM, respectively.
As to `CC(=O)N(c1ccc(-c2ccc(OCC3CCN(CC(=O)N[C@H](C(=O)N4C[C@H](O)C[C@H]4C(=O)N[C@@H](C)c4ccc(-c5scnc5C)cc4)C(C)(C)C)CC3)nc2)cc1)[C@H]1CC[C@H](Nc2ncc3ccccc3n2)CC1` [Formula 133, (2S,4R)-1-((S)-3,3-dimethyl-2-(2-(4-(((5-(4-(N-((1R,4R)-4-(quinazolin-2-ylamino)cyclohexyl)acetamido)phenyl)pyridin-2-yl)oxy)methyl)piperidin-1-yl)acetamido)butanoyl)-4-hydroxy-N—((S)-1-(4-(4-methylthiazol-5-yl)phenyl)ethyl)pyrrolidine-2-carboxamide], the figures for the DC50 at CDK12 (setting [1]) and at CDK13 (setting [2]) were 500 to 1000 nM and 100 to 500 nM, respectively.
